Measured values reported in PMC6225212, “Synthesis and Pharmacological Evaluation of Novel Silodosin-Based Arylsulfonamide Derivatives as α1A/α1D-Adrenergic Receptor Antagonist with Potential Uroselective Profile” (Molecules : A Journal of Synthetic Chemistry and Natural …, 2018).

How the values were obtained:
α1-ARs = assay: Radioligand binding, displacement of [3H]-Prazosin from α1-ARs on rat cerebral cortex; settings: for Sα2/α1 (ratio of affinity for α2- and α1-ARs): Ki α2 / Ki α1; for Ki: [3H]-Prazosin, rat cerebral cortex, ± SEM, two independent experiments
Procedure: (§1) The pharmacological profile of the new compounds was assessed in radioligand-binding assays as the ability to displace [^3H]-Prazosin or [^3H]-Clonidine from α1- and α2-ARs, respectively, on rat cerebral cortex. The inhibition constants (Ki) were calculated from the Cheng-Prusoff equation [24].
(§2) The affinity of the obtained compounds was evaluated by radioligand-binding assays (the ability to displace [^3H]-Prazosin and [^3H]-Clonidine from α1- and α2-ARs, respectively) on rat cerebral cortex. The brains are homogenized in 20 volumes of an ice-cold 50 mM Tris-HCl buffer (pH 7.6) and is centrifuged (MPW Med. Instruments, Warsaw, Poland) at 20,000 g for 20 min (0–4 °C). The cell pellet is resuspended in the Tris-HCl buffer and centrifuged again. Radioligand-binding assays are performed in plates (MultiScreen/Millipore, Burlington, MA, USA). The final incubation mixture (final volume 300 µL) consisted of 240 µL of the membrane suspension, 30 µL of [^3H]-Prazosin (0.2 nM) or [^3H]-Clonidine (2 nM) solution, and 30 µL of the buffer containing seven to eight concentrations (10^−11 to 10^−4 M) of the tested compounds. For measuring the unspecific binding, phentolamine, 10 µM (in the case of [^3H]-Prazosin) and clonidine, and 10 µM (in the case of [^3H]-Clonidine), were applied. The incubation was terminated by rapid filtration over glass fiber filters (Whatman GF/C, Sigma-Aldrich) using a vacuum manifold (Millipore). The filters were then washed twice with the assay buffer and placed in scintillation vials with a liquid-scintillation cocktail. Radioactivity was measured in a WALLAC 1409 DSA liquid-scintillation counter (BioSurplus, San Diego, CA, USA). All the assays were made in duplicate.

muscarinic M1R = biological target: T1, muscarinic M1R (Homo sapiens, UniProt P11229); assay: Off-target panel at Eurofins Cerep, M1; assay type: binding
T1 construct: Eurofins (Celle-Lévescault, France)
T1 sequence (P11229 1-460): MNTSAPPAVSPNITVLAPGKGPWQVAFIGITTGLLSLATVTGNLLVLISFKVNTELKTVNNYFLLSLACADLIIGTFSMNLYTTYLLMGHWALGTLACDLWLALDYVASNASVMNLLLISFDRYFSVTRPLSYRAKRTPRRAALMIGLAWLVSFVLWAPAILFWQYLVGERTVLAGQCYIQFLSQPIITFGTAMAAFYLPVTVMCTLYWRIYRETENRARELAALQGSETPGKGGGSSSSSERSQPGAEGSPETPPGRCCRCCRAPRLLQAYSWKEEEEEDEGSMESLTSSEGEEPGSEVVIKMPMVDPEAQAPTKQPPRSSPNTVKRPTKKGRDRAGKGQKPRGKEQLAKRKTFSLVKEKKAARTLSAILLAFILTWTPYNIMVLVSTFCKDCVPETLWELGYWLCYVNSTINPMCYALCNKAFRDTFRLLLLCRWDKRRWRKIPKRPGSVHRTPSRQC
Procedure: (§3) Finally, the percentage of inhibition for selected compounds 9 and 10 for off-target histaminic H1R, muscarinic M1R, adrenergic β1-AR and potassium ion channel hERG were assessed at Eurofins (Celle-Lévescault, France) according to the procedure online at www.eurofins.com.

α2-ARs = assay: Radioligand binding, displacement of [3H]-Clonidine from α2-ARs on rat cerebral cortex; settings: ± SEM, two independent experiments
Procedure: as §1, §2

adrenergic β1-AR = biological target: T2, adrenergic β1-AR (Homo sapiens, UniProt P08588); assay: Off-target panel at Eurofins Cerep, β1; assay type: binding
T2 construct: Eurofins (Celle-Lévescault, France)
T2 sequence (P08588 whole entry): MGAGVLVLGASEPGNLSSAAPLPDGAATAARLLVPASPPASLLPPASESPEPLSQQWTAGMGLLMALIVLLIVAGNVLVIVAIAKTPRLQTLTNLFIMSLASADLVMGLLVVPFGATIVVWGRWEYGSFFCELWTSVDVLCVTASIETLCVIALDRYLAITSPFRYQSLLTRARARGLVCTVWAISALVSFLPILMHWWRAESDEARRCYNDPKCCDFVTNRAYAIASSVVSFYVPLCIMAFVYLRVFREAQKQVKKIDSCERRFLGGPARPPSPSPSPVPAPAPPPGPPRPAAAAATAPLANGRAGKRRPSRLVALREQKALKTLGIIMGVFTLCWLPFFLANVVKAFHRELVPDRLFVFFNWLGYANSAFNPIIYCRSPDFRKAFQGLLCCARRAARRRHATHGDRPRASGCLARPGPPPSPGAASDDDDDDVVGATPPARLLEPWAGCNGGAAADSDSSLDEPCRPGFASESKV
Procedure: as §3

## O=S(=O)(NCC1CCN(CCOc2ccccc2OCC(F)(F)F)CC1)c1cccc(Cl)c1F [Compound 9, 3-Chloro-2-fluoro-N-[(1-{2-[(2,2,2-trifluoroethoxy)phenoxy]ethyl}piperidin-4-yl)methyl]benzenesulfonamide]
α1-ARs
  Sα2/α1 (ratio of affinity for α2- and α1-ARs): 17
  Ki: 50 ± 2 nM
Muscarinic M1R
  inhibition at 1 µM: < 50%
α2-ARs
  Ki: 858 ± 69 nM
Adrenergic β1-AR
  inhibition at 1 µM: < 50%

## O=S(=O)(NCC1CCN(CCOc2ccccc2OCC(F)(F)F)CC1)c1cc(Cl)ccc1F [Compound 10, 5-Chloro-2-fluoro-N-[(1-{2-[(2,2,2-trifluoroethoxy)phenoxy]ethyl}piperidin-4-yl)methyl]benzenesulfonamide]
α1-ARs
  Sα2/α1 (ratio of affinity for α2- and α1-ARs): 23
  Ki: 26 ± 1 nM
Muscarinic M1R
  inhibition at 1 µM: < 50%
α2-ARs
  Ki: 579 ± 20 nM
Adrenergic β1-AR
  inhibition at 1 µM: < 50%
